Data published in PubChem BioAssay AID330 (DTP/NCI, 2004).
Where “and” joins values, the source holds several entries; their conditions need not be identical. Equal values may be shown once. Toxic doses and inconclusive results are not listed. Rule for the calls: active = survival T/C of 150% or more; inactive = T/C below 125% in these data.

Test system: P388 leukemia ip, CD2F1 mice, survival T/C
Assay: NCI In Vivo Anticancer Drug Screen. Data for tumor model P388 Leukemia (intraperitoneal) in CD2F1 (CDF1) mice
Conditions: endpoint: median survival time, higher = longer survival
How it was run: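 Mice carrying the transplanted tumor received test compound or vehicle. Survival was recorded in each group, and the value is the treated-group measurement divided by that of the vehicle-treated control group.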

[1] = dose: 50.0 mg/kg/injection, schedule: Q01DX009 (ip), vehicle: saline with Tween-80
[2] = dose: 100.0 mg/kg/injection, schedule: Q01DX009 (ip), vehicle: saline with Tween-80
[3] = dose: 25.0 mg/kg/injection, schedule: Q01DX005 (ip), vehicle: Klucel (hydroxypropylcellulose) (HPC)
[4] = dose: 50.0 mg/kg/injection, schedule: Q01DX005 (ip), vehicle: Klucel (hydroxypropylcellulose) (HPC)
[5] = dose: 100.0 mg/kg/injection, schedule: Q01DX005 (ip), vehicle: Klucel (hydroxypropylcellulose) (HPC)
[6] = dose: 60.0 mg/kg/injection, schedule: Q01DX005 (ip), vehicle: saline
[7] = dose: 120.0 mg/kg/injection, schedule: Q01DX005 (ip), vehicle: saline
[8] = dose: 50.0 mg/kg/injection, schedule: Q01DX009 (ip), vehicle: saline
[9] = dose: 100.0 mg/kg/injection, schedule: Q01DX009 (ip), vehicle: saline
[10] = dose: 200.0 mg/kg/injection, schedule: Q01DX009 (ip), vehicle: saline
[11] = dose: 200.0 mg/kg/injection, schedule: Q01DX005 (ip), vehicle: Klucel (hydroxypropylcellulose) (HPC)
[12] = dose: 60.0 mg/kg/injection, schedule: Q01DX005 (ip), vehicle: saline with Tween-80
[13] = dose: 120.0 mg/kg/injection, schedule: Q01DX005 (ip), vehicle: saline with Tween-80
[14] = dose: 200.0 mg/kg/injection, schedule: Q01DX009 (ip), vehicle: saline with Tween-80
[15] = dose: 50.0 mg/kg/injection, schedule: Q04DX003 (ip), vehicle: saline with Tween-80
[16] = dose: 100.0 mg/kg/injection, schedule: Q04DX003 (ip), vehicle: saline with Tween-80
[17] = dose: 200.0 mg/kg/injection, schedule: Q04DX003 (ip), vehicle: saline with Tween-80
[18] = dose: 50.0 mg/kg/injection, schedule: Q01DX005 (ip), vehicle: saline with Tween-80
[19] = dose: 100.0 mg/kg/injection, schedule: Q01DX005 (ip), vehicle: saline with Tween-80
[20] = dose: 200.0 mg/kg/injection, schedule: Q01DX005 (ip), vehicle: saline with Tween-80
[21] = dose: 25.0 mg/kg/injection, schedule: Q01DX005 (ip), vehicle: saline with Tween-80
[22] = dose: 240.0 mg/kg/injection, schedule: Q01DX005 (ip), vehicle: saline with Tween-80
[23] = dose: 400.0 mg/kg/injection, schedule: Q01DX009 (ip), vehicle: saline with Tween-80
[24] = dose: 50.0 mg/kg/injection, schedule: Q01DX005 (ip), vehicle: saline
[25] = dose: 100.0 mg/kg/injection, schedule: Q01DX005 (ip), vehicle: saline

Measured: T/C

CC(=O)c1ccccc1C(C)C
inactive: dose: 25.0 mg/kg/injection, schedule: Q01DX009 (ip), vehicle: saline with Tween-80 100 % of control | [1] 109 % of control | [2] 119 % of control

CN(C)c1ncnc2c1ncn2CCn1cnc2c(N(C)C)ncnc21
inactive: dose: 12.5 mg/kg/injection, schedule: Q01DX005 (ip), vehicle: Klucel (hydroxypropylcellulose) (HPC) 97 % of control | [3] 100 % of control | [4] 100 % of control and 90 % of control | [5] 90 % of control

C#CCNC1=CC(=O)CCC1
inactive: [6] 100 % of control | [7] 106 % of control | dose: 240.0 mg/kg/injection, schedule: Q01DX005 (ip), vehicle: saline 118 % of control

O=[N+]([O-])c1ccc(C2OC(c3ccncc3)=NC2CO)cc1 (configuration not stated)
inactive: [8] 97 % of control | [9] 91 % of control | [10] 106 % of control

CN(C(=O)C(Cl)Cl)c1ccc(-c2csc(Cc3ccccc3)n2)cc1
inactive: dose: 100.0 mg/kg/injection, schedule: Q04DX003 (ip), vehicle: Klucel (hydroxypropylcellulose) (HPC) 101 % of control | dose: 200.0 mg/kg/injection, schedule: Q04DX003 (ip), vehicle: Klucel (hydroxypropylcellulose) (HPC) 99 % of control | dose: 400.0 mg/kg/injection, schedule: Q04DX003 (ip), vehicle: Klucel (hydroxypropylcellulose) (HPC) 97 % of control

COc1ccc2c(c1)CN(Cc1c(Cl)cccc1Cl)CO2
inactive: [3] 98 % of control | [4] 115 % of control and 97 % of control | [5] 103 % of control and 92 % of control | [11] 89 % of control

CC(=O)NCc1ccc(N2C(N)=NC(N)=NC2(C)C)cc1
inactive: dose: 25.0 mg/kg/injection, schedule: Q04DX002 (ip), vehicle: saline 100 % of control | dose: 50.0 mg/kg/injection, schedule: Q04DX002 (ip), vehicle: saline 116 % of control | dose: 100.0 mg/kg/injection, schedule: Q04DX002 (ip), vehicle: saline 100 % of control

OC1CC2CCC(C1)N2 (configuration not stated)
inactive: [6] 100 % of control | [7] 96 % of control

CC(=O)Nc1ccc(/C=C2/C(=O)ON=C2C)cc1
inactive: [12] 116 % of control | [13] 116 % of control

COc1ccc(/C=C2\CCn3c2nc2ccccc2c3=O)cc1
inactive: dose: 89.75 mg/kg/injection, schedule: Q04DX002 (ip), vehicle: Klucel (hydroxypropylcellulose) (HPC) 103 % of control | dose: 179.5 mg/kg/injection, schedule: Q04DX002 (ip), vehicle: Klucel (hydroxypropylcellulose) (HPC) 102 % of control | dose: 359.0 mg/kg/injection, schedule: Q04DX002 (ip), vehicle: Klucel (hydroxypropylcellulose) (HPC) 102 % of control

O=S(=O)(Oc1ccc(Cl)cc1)C(F)(F)C(F)(F)C(F)(F)C(F)(F)F
inactive: [1] 105 % of control | [2] 108 % of control | [14] 105 % of control

CC(=O)OC1CCCCC1C (configuration not stated)
inactive: [1] 113 % of control | [15] 105 % of control | [2] 118 % of control | [16] 110 % of control | [14] 109 % of control | [17] 110 % of control

COc1ccccc1NC(=O)CC(=O)N1N=C(C)C(N=Nc2ccc(I)cc2)C1=O (configuration not stated)
inactive: [18] 95 % of control | [19] 100 % of control | [20] 92 % of control

Cc1ccc(C2(c3ccccc3)OC3OC=CC32)cc1 (configuration not stated)
inactive: [21] 97 % of control | [18] 101 % of control | [12] 96 % of control | [19] 100 % of control | [22] 96 % of control

CCCCCCOc1cc2c(cc1C(C)c1ccc(OC)cc1)OCO2 (configuration not stated)
inactive: [4] 103 % of control | [5] 109 % of control | [11] 109 % of control

O=C(C(Br)C(Br)c1ccccc1)N1CCOCC1 (configuration not stated)
inactive: [2] 118 % of control | dose: 178.0 mg/kg/injection, schedule: Q01DX009 (ip), vehicle: saline with Tween-80 113 % of control | dose: 266.0 mg/kg/injection, schedule: Q01DX009 (ip), vehicle: saline with Tween-80 119 % of control | [23] 121 % of control

CCCCCNCC(=O)O
inactive: [24] 91 % of control | [25] 96 % of control

O=C(O)c1cccnc1C(=O)O
inactive: [8] 105 % of control | [9] 96 % of control and 100 % of control and 111 % of control | [10] 86 % of control and 102 % of control and 97 % of control | dose: 400.0 mg/kg/injection, schedule: Q01DX009 (ip), vehicle: saline 100 % of control and 90 % of control

CS/N=C(\c1ccccc1)N(C)C
inactive: dose: 7.5 mg/kg/injection, schedule: Q01DX005 (ip), vehicle: Klucel (hydroxypropylcellulose) (HPC) 97 % of control | dose: 15.0 mg/kg/injection, schedule: Q01DX005 (ip), vehicle: Klucel (hydroxypropylcellulose) (HPC) 100 % of control

Cc1nc2ccccc2[se]1
inactive: [12] 100 % of control | [13] 92 % of control | [22] 96 % of control

Cc1ccc(NC(=O)N(C)N=O)cc1
inactive: [1] 95 % of control | [15] 100 % of control | [2] 90 % of control | [16] 100 % of control | [14] 90 % of control | [17] 100 % of control

CN=C(N)N/N=C/c1ccc2c(c1)Cc1ccccc1-2
inactive: dose: 6.25 mg/kg/injection, schedule: Q04DX002 (ip), vehicle: saline with Tween-80 106 % of control and 122 % of control | dose: 12.5 mg/kg/injection, schedule: Q04DX002 (ip), vehicle: saline with Tween-80 109 % of control | dose: 25.0 mg/kg/injection, schedule: Q04DX002 (ip), vehicle: saline with Tween-80 107 % of control | dose: 50.0 mg/kg/injection, schedule: Q04DX002 (ip), vehicle: saline with Tween-80 119 % of control and 124 % of control | dose: 100.0 mg/kg/injection, schedule: Q04DX002 (ip), vehicle: saline with Tween-80 118 % of control

Cc1c(CCNC=O)ccc2c1[nH]c1ccccc12
inactive: [4] 95 % of control | [5] 96 % of control | [11] 100 % of control

COC(=O)/C=C(\C)Oc1c(Cl)c(Cl)c(Cl)c(Cl)c1Cl
inactive: dose: 50.0 mg/kg/injection, schedule: Q04DX003 (ip), vehicle: saline sonified 110 % of control | [2] 91 % of control | dose: 100.0 mg/kg/injection, schedule: Q04DX003 (ip), vehicle: saline sonified 110 % of control | [14] 100 % of control | dose: 200.0 mg/kg/injection, schedule: Q04DX003 (ip), vehicle: saline sonified 110 % of control | [23] 91 % of control

CC(=O)Nc1ccc(N=Nc2c(S(=O)(=O)O)cc3cc(NC(C)=O)ccc3c2O)cc1
inactive: [24] 98 % of control and 100 % of control | [25] 100 % of control and 103 % of control | dose: 200.0 mg/kg/injection, schedule: Q01DX005 (ip), vehicle: saline 99 % of control

O=C(C(=S)c1ccccc1)N(Cc1ccccc1)Cc1ccccc1
inactive: [16] 108 % of control | [17] 103 % of control | dose: 400.0 mg/kg/injection, schedule: Q04DX003 (ip), vehicle: saline with Tween-80 103 % of control

O=C(CCSCCCl)Nc1c([N+](=O)[O-])cc([N+](=O)[O-])cc1S(=O)(=O)O
inactive: dose: 3.13 mg/kg/injection, schedule: Q04DX003 (ip), vehicle: DMSO 104 % of control | dose: 6.25 mg/kg/injection, schedule: Q04DX003 (ip), vehicle: DMSO 99 % of control | dose: 12.5 mg/kg/injection, schedule: Q04DX003 (ip), vehicle: DMSO 111 % of control | dose: 25.0 mg/kg/injection, schedule: Q04DX003 (ip), vehicle: DMSO 124 % of control | dose: 25.0 mg/kg/injection, schedule: Q04DX003 (ip), vehicle: olive oil, sesame oil, peanut oil 118 % of control | dose: 50.0 mg/kg/injection, schedule: Q04DX003 (ip), vehicle: DMSO 118 % of control | dose: 75.0 mg/kg/injection, schedule: Q04DX003 (ip), vehicle: DMSO 118 % of control

CCC(=O)n1nc(Nc2ccccc2)c(C(=O)OC)c1C
inactive: dose: 6.25 mg/kg/injection, schedule: Q01DX005 (ip), vehicle: saline with Tween-80 99 % of control | dose: 12.5 mg/kg/injection, schedule: Q01DX005 (ip), vehicle: saline with Tween-80 94 % of control | [21] 94 % of control | [20] 86 % of control
